The source of these data is ChEMBL document CHEMBL1201862, “PubChem BioAssay data set” (2004).

Some test systems named below: A549; EKVX; HOP-92; KM12; M14; MCF7; MDA-MB-435; MDA-N; NCI-H460; NCI/ADR-RES; OVCAR-3; RXF 393; SK-MEL-5; SNB-19; SNB-75; SR; UACC-62; MOLT-4; SK-MEL-2; NCI-H226.
Experiment in all cases: inhibition of tumour cell growth, NCI panel, 48 h

Each structure is given as a SMILES string.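 Exposure lasted 48 hours, with cells grown in 96-well plates and compounds tested at five concentrations. GI50 is the concentration that inhibits growth by half.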 Active and inactive are the calls of the source. No stated cut-off is given here; in the data, active = GI50 up to about 1.1 µM and inactive = higher.

`Cc1cc(Cl)ccc1NC(=O)/C(Cl)=C(/Cl)C(=O)O`: the GI50 in the test on A549 is 48.8 µM (inactive); with EKVX, 19.1 µM (inactive); with HOP-92, 22.1 µM (inactive); in the test with KM12, 31 µM (inactive); with M14, 28.4 µM (inactive); with MCF7 it was 21.4 µM (inactive). For the same compound, the GI50 in the test with MDA-MB-435 is 20.6 µM (inactive); in the test with MDA-N, 24.1 µM (inactive); in the test with NCI-H460, > 100 µM (inactive); in the test on NCI/ADR-RES, 29 µM (inactive); with OVCAR-3, 18.4 µM (inactive); in the test with RXF 393, 19.6 µM (inactive). The GI50 with SK-MEL-5 is 50.7 µM (inactive); in the test on SNB-19 it was > 100 µM (inactive); with SNB-75 it was 29.9 µM (inactive); with SR, 15.1 µM (inactive); with UACC-62 it was 21.5 µM (inactive).
Turning to `CCNCCCNc1c2ccccc2nc2ccccc12`, the GI50 is 0.64 µM (active) in the test with A549; 0.569 µM (active) with EKVX; 0.469 µM (active) with HOP-92; 0.396 µM (active) in the test on KM12; 0.318 µM (active) with M14; 0.193 µM (active) in the test with MCF7. In addition, the GI50 was 0.479 µM (active) in the test on MDA-MB-435; 0.356 µM (active) with MDA-N; 0.313 µM (active) in the test on MOLT-4; 0.196 µM (active) with NCI-H460; 0.916 µM (active) in the test with NCI/ADR-RES; 0.326 µM (active) with OVCAR-3. In addition, the GI50 in the test with RXF 393 was 0.568 µM (active); in the test on SK-MEL-2 it was 0.518 µM (active); in the test with SK-MEL-5, 0.375 µM (active); in the test on SNB-19 it was 0.499 µM (active); with SNB-75, 0.234 µM (active); in the test with SR, 0.285 µM (active). In the test with UACC-62, the GI50 is 0.387 µM (active).
Turning to `Cc1cc(S(=O)(=O)N=C2N(Cc3ccccc3)CCN2Cc2ccccc2)c(S)cc1Cl`, the GI50 in the test on A549, with EKVX, in the test with HOP-92, in the test on KM12, in the test on M14 and in the test with MCF7 was > 100 µM (inactive) throughout. Moreover, the GI50 in the test on MDA-MB-435 was > 100 µM (inactive); in the test on MDA-N it was > 100 µM (inactive); with MOLT-4, > 100 µM (inactive); in the test with NCI-H226, 85.5 µM (inactive); with NCI-H460, 56.1 µM (inactive); in the test with NCI/ADR-RES, > 100 µM (inactive). The GI50 is > 100 µM (inactive) in the test on OVCAR-3; 78.3 µM (inactive) with RXF 393; > 100 µM (inactive) in the test on SK-MEL-5; > 100 µM (inactive) in the test on SNB-19; 69.8 µM (inactive) in the test on SNB-75; 95.9 µM (inactive) with SR. The GI50 in the test with UACC-62 was > 100 µM (inactive).
Turning to `Cc1ccc(/C=C2/N/C(=N\N=C/C(O)C(O)C(O)C(O)CO)NC2=O)cc1` (centres undefined), the GI50 with A549, in the test on EKVX, with HOP-92, with KM12, with M14 and in the test with MCF7 was > 100 µM (inactive) each time. Further, the GI50 in the test with MDA-MB-435, with MDA-N, in the test with NCI-H226, in the test with NCI-H460, in the test with NCI/ADR-RES and in the test with OVCAR-3 was > 100 µM (inactive) each time. For the same compound, the GI50 with RXF 393, in the test on SK-MEL-2, in the test with SK-MEL-5, with SNB-19, in the test on SNB-75 and with SR was > 100 µM (inactive) throughout.
For the compound `Br[Se]c1ccccn1`, the GI50 is 21.6 µM (inactive) in the test on A549; 17.6 µM (inactive) with EKVX; 18.5 µM (inactive) in the test on HOP-92; 17.3 µM (inactive) in the test on KM12; 17.6 µM (inactive) with M14; 17.7 µM (inactive) with MCF7. In addition, the GI50 was 17.3 µM (inactive) with MDA-MB-435; 17.7 µM (inactive) with MDA-N; 17.5 µM (inactive) in the test with NCI-H226; 18.9 µM (inactive) in the test with NCI-H460; 26.1 µM (inactive) in the test with NCI/ADR-RES; 15.5 µM (inactive) in the test on OVCAR-3. The GI50 in the test on RXF 393 was 17.2 µM (inactive); with SK-MEL-2, 16.4 µM (inactive); in the test on SK-MEL-5, 15.6 µM (inactive); in the test with SNB-19 it was 12.4 µM (inactive); in the test with SNB-75, 17 µM (inactive); in the test with SR, 23.4 µM (inactive). The GI50 in the test with UACC-62 was 17.1 µM (inactive).
Turning to `Cc1cc(S(=O)(=O)N/C(=C(\C#N)C(=O)c2ccccc2)[n+]2ccc(N(C)C)cc2)c([S-])cc1Cl`, the GI50 was > 100 µM (inactive) with A549; 32 µM (inactive) with EKVX; 0.33 µM (active) in the test with HOP-92; > 100 µM (inactive) in the test with KM12; > 100 µM (inactive) in the test with M14; > 100 µM (inactive) with MCF7. Further, the GI50 was > 100 µM (inactive) in the test on MDA-MB-435; > 100 µM (inactive) in the test with MDA-N; 60.1 µM (inactive) in the test with MOLT-4; > 100 µM (inactive) with NCI-H226; > 100 µM (inactive) with NCI-H460; > 100 µM (inactive) with NCI/ADR-RES. Further, the GI50 was > 100 µM (inactive) in the test with OVCAR-3; > 100 µM (inactive) in the test on RXF 393; 83 µM (inactive) in the test on SK-MEL-2; > 100 µM (inactive) in the test with SK-MEL-5; > 100 µM (inactive) with SNB-19; 64.9 µM (inactive) with SR. The GI50 in the test with UACC-62 is > 100 µM (inactive).
For `NNC(=O)CSc1nnc(CCCCCCCCc2nnc(SCC(=O)NN)o2)o1`, the GI50 in the test on A549, with EKVX, in the test on HOP-92, with KM12, with M14 and with MCF7 was > 100 µM (inactive) throughout. Besides, the GI50 with MDA-MB-435, in the test with MDA-N, in the test on MOLT-4, in the test with NCI-H226, with NCI-H460 and with NCI/ADR-RES was > 100 µM (inactive) throughout. Besides, the GI50 with RXF 393, with SK-MEL-2, in the test on SK-MEL-5, in the test on SNB-19, with SNB-75 and with SR was > 100 µM (inactive) throughout. Further, the GI50 in the test with UACC-62 is > 100 µM (inactive).
Take `CC(NP(=O)(c1ccccc1)c1ccccc1)c1ccccc1` (centres undefined): the GI50 with A549, in the test on EKVX, with HOP-92, in the test with KM12, in the test on M14 and in the test with MCF7 was > 100 µM (inactive) throughout. Moreover, the GI50 in the test on MDA-MB-435, with MDA-N, in the test on MOLT-4, with NCI-H226, in the test with NCI-H460 and in the test on NCI/ADR-RES was > 100 µM (inactive) in each case. Besides, the GI50 in the test on OVCAR-3, with RXF 393, in the test on SK-MEL-5, in the test on SNB-19, in the test with SNB-75 and in the test with SR was > 100 µM (inactive) in each case. Besides, in the test on UACC-62, the GI50 is > 100 µM (inactive).
